Experimental data as given in the NIST ThermoML archive (doi:10.1021/acs.jced.8b01078).
± gives the expanded uncertainty stated by the source.

Details: Liquid, Closed cell (Static) method

O [water]
Details	vapor or sublimation pressure [kPa]
313.16 K	7.46 ± 2.5
323.16 K	12.54 ± 2.6
333.16 K	20.24 ± 2.8
343.16 K	31.54 ± 3.2
353.16 K	48.25 ± 3.8
363.16 K	70.49 ± 4.7
373.16 K	101.98 ± 5.3
